Source: ChEMBL document CHEMBL2311270, “Additional acetyl cholinesterase inhibitory property of diaryl pyrazoline derivatives” (Bioorg Med Chem Lett, 2013)
Calls of active or inactive are those of the source. No cut-off for these calls is given here.

Assays:
Acetylcholinesterase = Acetylcholinesterase (Homo sapiens, UniProt P22303)
Description: Inhibition of human erythrocyte AChE using acetylthiocholine iodide as substrate after 60 mins by Ellman's method

[1] = molecular target: Cholinesterase (Equus caballus) (UniProt P81908); experiment: Inhibition of equine serum BChE using butyrylthiocholine iodide as substrate up to 100 nM after 60 mins by Ellman's method
Cholinesterase (Equus caballus), sequence (P81908 whole entry): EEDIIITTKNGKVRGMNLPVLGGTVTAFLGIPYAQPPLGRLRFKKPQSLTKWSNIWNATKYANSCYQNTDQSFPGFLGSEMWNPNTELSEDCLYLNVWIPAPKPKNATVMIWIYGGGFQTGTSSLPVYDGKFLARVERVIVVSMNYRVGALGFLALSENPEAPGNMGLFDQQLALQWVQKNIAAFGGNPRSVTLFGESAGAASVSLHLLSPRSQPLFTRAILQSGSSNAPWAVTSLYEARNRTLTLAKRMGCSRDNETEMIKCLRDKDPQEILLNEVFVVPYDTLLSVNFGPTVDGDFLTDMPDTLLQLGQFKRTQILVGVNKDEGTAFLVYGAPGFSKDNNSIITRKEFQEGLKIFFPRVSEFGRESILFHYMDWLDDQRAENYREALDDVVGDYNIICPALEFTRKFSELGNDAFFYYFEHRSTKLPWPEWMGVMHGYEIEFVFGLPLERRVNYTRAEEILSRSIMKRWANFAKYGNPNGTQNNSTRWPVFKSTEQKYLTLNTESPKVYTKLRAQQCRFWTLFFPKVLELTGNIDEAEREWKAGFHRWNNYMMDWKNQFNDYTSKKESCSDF

Acetylcholinesterase, sequence (P22303 whole entry): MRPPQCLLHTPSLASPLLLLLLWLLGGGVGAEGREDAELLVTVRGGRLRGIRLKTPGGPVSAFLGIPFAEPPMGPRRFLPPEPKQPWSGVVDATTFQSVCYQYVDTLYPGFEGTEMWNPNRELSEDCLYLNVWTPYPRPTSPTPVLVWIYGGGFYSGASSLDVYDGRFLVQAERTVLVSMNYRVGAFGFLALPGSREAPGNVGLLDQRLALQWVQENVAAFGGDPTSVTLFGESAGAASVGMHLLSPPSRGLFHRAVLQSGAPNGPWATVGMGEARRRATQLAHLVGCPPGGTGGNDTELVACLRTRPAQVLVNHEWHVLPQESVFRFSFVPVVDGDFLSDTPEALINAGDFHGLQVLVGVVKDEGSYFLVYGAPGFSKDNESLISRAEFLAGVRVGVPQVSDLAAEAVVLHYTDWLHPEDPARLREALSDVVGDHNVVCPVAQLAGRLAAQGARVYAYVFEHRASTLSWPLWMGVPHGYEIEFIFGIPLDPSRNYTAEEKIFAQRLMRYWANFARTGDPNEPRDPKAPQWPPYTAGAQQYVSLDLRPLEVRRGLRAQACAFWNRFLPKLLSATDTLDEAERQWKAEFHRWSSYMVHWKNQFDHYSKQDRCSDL

| SMILES | Ki (Acetylcholinesterase) [nM] | inhibition [1] |
| --- | --- | --- |
| Oc1ccc([C@@H]2CC(c3c4ccccc4cc4ccccc34)=NN2)c(O)c1 | 7.2 | inactive |
| Cc1ccc([C@@H]2CC(c3c4ccccc4cc4ccccc34)=NN2)cc1 | > 100 | – |
| COc1ccc([C@@H]2CC(c3c4ccccc4cc4ccccc34)=NN2)cc1 | 25.4 | inactive |
| O=[N+]([O-])c1cccc([C@@H]2CC(c3c4ccccc4cc4ccccc34)=NN2)c1 | 20.6 | inactive |
| Oc1ccc([C@@H]2CC(c3c4ccccc4cc4ccccc34)=NN2)cc1 | > 100 | – |
| c1ccc([C@@H]2CC(c3c4ccccc4cc4ccccc34)=NN2)cc1 | 30.2 | inactive |
| Clc1ccc([C@@H]2CC(c3c4ccccc4cc4ccccc34)=NN2)cc1 | – | inactive |
| c1ccc([C@@H]2CC(c3c4ccccc4cc4ccccc34)=NN2)nc1 | 41.3 | inactive |
| Oc1ccccc1[C@@H]1CC(c2c3ccccc3cc3ccccc23)=NN1 | 24.4 | inactive |
| O=[N+]([O-])c1ccc([C@@H]2CC(c3c4ccccc4cc4ccccc34)=NN2)cc1 | > 100 | – |
